The record followed here is patent US5010174A, “Novel calcitonin derivative and salt thereof” (Mitsubishi Petrochemical Co., Ltd., priority 1987, dated 1991).

Series [1] is described as follows: Biological activity (calcitonin activity, MRC U/mg), assayed by the method of Japanese Provisional Patent Publication No. 123500/1985. In kind it is in vivo. Particulars: for biological activity: method of Japanese Provisional Patent Publication No. 123500/1985; for biological activity, in words, compared with Example 1: measured as in Example 1. How it is done: The crude (Oct^1, Cys(CA)^7)-CCT obtained was dissolved in a 1 M acetic acid (5 mg/ml) and purified by the reverse phase high performance liquid chromatography. Chemcopack ODS-H (trade name, .phi.: 10 mm×250 mm) column produced by Chemco Co. was used, with the eluents employed being water (100) - 10% TFA (1) for the eluent A and water (40)-acetonitrile (60) - 10% TFA (1) for the eluent B, and the elution was effected under the linear concentration gradient from the eluent A to the eluent B. Here, the numerals within bracckets represent volume ratios. The fraction corresponding to (Oct^1, Cys(CA)^7)-CCT was collected and lyophilized to obtain 2.8 mg of white powder. The biological activity of the white powder obtained was assayed according to the method as described in Japanese Provisional Patent Publication No. 123500/1985.

Series [2] is described as follows: Stability test: heating in sodium citrate buffer, remaining peptide by reverse phase HPLC. Particulars: for Stability (ratio of eluted peak area A after heating to area B without heat treatment): 0.1 M sodium citrate buffer pH 6.0, 10 μg/ml, sealed tube, 80° C., 24 hours, reverse phase HPLC.
Procedure: The (Oct^1, Cys(CA)^7)-CCT was dissolved in 0.1 M sodium citrate buffer (pH 6.0) to a concentration of 10 μg/ml. One ml of this solution was left to stand in a sealed tube at 80° C. for 24 hours. By analysis according to the reverse phase HPLC by use of the measurement conditions (1), the eluted peak area A of the remaining (Oct^1, Cys(CA)^7)-CCT was determined. Similarly, the eluted peak area B of the (Oct^1, Cys(CA)^7)-CCT in the sample solution not subjected to the heat treatment was determined, and the ratio of A to B (%) was defined as the index.

Take (Oct^1, Thr^3, Cys(Acm)^7)-CCT: the biological activity in series [1] is reported as 7800 MRC U/mg. Also, the “Stability (ratio of eluted peak area A after heating to area B without heat treatment)” value in series [2] was found to be 82%.
For (Oct^1, Ala^3, Cys(CA)^7)-CCT the same measures were 6100 MRC U/mg and 90%.
In the case of (Oct^1, Cys^7)-CCT, the “biological activity, in words, compared with Example 1” value in series [1] is “substantially equal to those of (Oct^1, Cys(CA)^7)-CCT of Example 1”. In addition, in series [2] (measured as in Example 1), the “stability, in words, compared with Example 1” value is listed as “substantially equal to those of (Oct^1, Cys(CA)^7)-CCT of Example 1”.
For (Oct^1, Cys(Acm)^7)-ECT, in series [1], the biological activity was 5400 MRC U/mg.
For (Oct^1, Cys(CA)^7)-CCT, in series [1], the “biological activity, in words, compared with Example 1” value is “equal to that obtained in Example 1” and the biological activity is given as 5400 MRC U/mg. The “Stability (ratio of eluted peak area A after heating to area B without heat treatment)” value in series [2] was determined as 95%.
As to (Oct^1, Cys(Acm)^7)-CCT, the biological activity in series [1] was found to be 5500 MRC U/mg.
As for (Oct^1, Thr^3, Cys(CA)^7)-CCT, the biological activity in series [1] worked out at 7800 MRC U/mg. In addition, the “Stability (ratio of eluted peak area A after heating to area B without heat treatment)” value in series [2] stood at 95%.
